The subject of this experiment is CEM cells HIV-1 protection, formazan growth assay. The experiment can be described thus: NCI AIDS Antiviral Assay. Particulars: for IC50: measured here: growth of uninfected CEM cells. An outline of the steps: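 Screen of anti-HIV-1 activity in human CEM cells using a formazan-based growth measurement at five drug concentrations. Hits with 50% or greater protection were repeated, and confirmation required reproducible complete protection.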

The text below walks through data of PubChem BioAssay AID179 (DTP/NCI, 2004).

Activity calls are given as the source filed them.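 Rule for the calls: active = compounds giving half or more protection of infected cells from virus-caused growth loss, again on retest; inactive = the rest.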 Where a SMILES comes first, the peptide text is derived from it. Bridges are numbered along the chain shown (N, C = ends).

Turning to `N=C1C(=O)NC(=O)C1c1ccccc1` (centres undefined), the EC50 was over 200 µM and the IC50 was 151 µM.
In the same order, the values of `COC1(OC)C2C=CC1C([C@](C)(N)CO)C2` (some centres undefined) are over 1100 µM and over 1100 µM.
In the same order, the values of `C=CCOCC(O)CNCC(O)COCC=C` (centres undefined) are over 200 µM and over 200 µM.
For `CC1(C(=O)O)CC(C(=O)O)=Nn2c3ccccc3c3cccc1c32` (centres undefined) the same measures were over 324 µM and over 324 µM.
For the molecule `CC(C)C(NC(=O)C(N)CCC(=O)O)C(=O)O` (stereo not drawn) (H-Glu-Val-OH; configuration not given here), the outcome was inactive.
`CCN(CC)CCC(=O)/C=C/c1ccc(Cl)c(Cl)c1`: the EC50 was over 200 µM and the IC50 is 5.13 µM.
For the molecule `O=c1c2ccccc2oc2cc([N+](=O)[O-])cc([N+](=O)[O-])c12`, the EC50 is over 5.01 µM and the IC50 worked out at 4.17 µM.
In the same order, the values of `O=c1oc2ncccc2n1Cc1ccc([N+](=O)[O-])cc1` are over 200 µM and over 200 µM.
For the molecule `Cc1ccc(S(=O)(=O)N2CCC2c2ccccc2)cc1` (centres undefined), the outcome was inactive.
For the molecule `Cc1ccc(SS(=O)(=O)c2ccc([N+](=O)[O-])cc2)cc1`, the EC50 was over 60.3 µM and the IC50 is 40.7 µM.
In the same order, the values of `CNCCSS(=O)(=O)CCNC` are 214 µM and 457 µM.
On to `CCOC(=O)COc1ccc2c(C)c(CCN(CC)CC)c(=O)oc2c1`, for which the EC50 was over 631 µM and the IC50 is over 631 µM.
With `COc1ccc(/C=N/NC(=O)c2ccc(OCc3nc4ccccc4[nH]3)cc2)cc1`, the EC50 was 178 µM and the IC50 is over 200 µM.
On to `CC1(C)C(C#N)C(=O)N=C(N)C1C(N)=O` (centres undefined), for which the EC50 is over 200 µM and the IC50 is over 200 µM.
With `CC(=O)NNc1nc(C)c(C(=O)/C=C/C=C/c2ccccc2)s1`, the EC50 is over 21.9 µM and the IC50 is over 21.9 µM.
In the case of `Cc1ccc(C2=Nc3c(c(C)nn3-c3ccccc3)N=C(C(=O)O)C2)cc1`, the EC50 is over 200 µM and the IC50 amounted to 75.9 µM.
On to `O=C(CCC1CCCCN1)Nc1ccc2c(c1)C(=O)c1ccc(NC(=O)CCN3CCCCC3)cc1C2=O` (centres undefined), for which the result was inactive.
`O=C(/C=C\c1cccc(O)c1)/C=C/c1cccc(O)c1`: the EC50 is 107 µM and the IC50 came out at 112 µM.
In the same order, the values of `C[N+](C)(Cc1ccc(NC(=O)CCCC(=O)ON2C(=O)CCC2=O)cc1)c1ccccc1` are over 200 µM and 135 µM.
In the case of `c1ccc2c(c1)c1ccccc1n2-n1c2ccccc2c2ccccc21`, the EC50 was over 200 µM and the IC50 was 132 µM.
As for `CCN(CC)CCOc1ccc(C(O)(Cc2ccc(OC)cc2)c2ccccc2)cc1` (centres undefined), the outcome was inactive.
Still for that read-out and setting: the same measure for `CCOC(=O)COc1cccc2c1C(=O)CCO2`: “inactive”.
With `CCOC(=O)c1[nH]c2cccc3c2c1CC[C@H](NC(=O)C(F)(F)F)C3=O`, the EC50 is over 200 µM and the IC50 is over 200 µM.
As to `COC1CC(O)C2OC(c3ccccc3)OCC2O1` (centres undefined), the result was inactive.
For `CCC1(CC)COP(=O)(Oc2ccccc2)OC1`, the EC50 was over 200 µM and the IC50 is over 200 µM.
Take `CCOC(=O)Nc1nc2ccccc2[nH]1`: the EC50 is over 200 µM and the IC50 turned out to be 11.2 µM.
In the same order, the values of `CCN(CC)CCOCC1CCCN2CCCCC12` (centres undefined) are over 200 µM and over 200 µM.
In the same order, the values of `Nc1nc(=O)n(C2CC(O)C(CO)O2)c2nc(-c3ccc(-c4ccccc4)cc3)cnc12` (centres undefined) are over 200 µM and over 200 µM.
In the same order, the values of `COc1cc(C(C#N)S(=O)(=O)O)ccc1O` (centres undefined) are over 200 µM and over 200 µM.
In the case of `COc1c(-c2cccs2)oc2c(CC(=O)O)cccc2c1=O`, the EC50 is over 200 µM and the IC50 stood at 91.2 µM.
For `COc1ccc(/C(Cl)=C/c2cc(OC)ccc2OC)cc1` the same measures were over 200 µM and 13.5 µM.
Consider `C/C(=N\Nc1ccc([N+](=O)[O-])cc1)C(=O)N(C)Nc1ccccc1`, for which the outcome was inactive.
`Cc1cc(C)c(/C=C(\C(=C/c2c(C)cc(C)cc2C)[N+](=O)[O-])[N+](=O)[O-])c(C)c1`: the EC50 is over 100 µM and the IC50 was over 100 µM.
In the case of `O=C1OCCOCCOCCOCCOCCOCCOC(=O)c2cccc1n2`, the EC50 was over 107 µM and the IC50 is 56.2 µM.
For the molecule `C1CSCCSS[C@@H]2CCCCC2SC1` (some centres undefined), the EC50 is over 33.9 µM and the IC50 was over 33.9 µM.
As for `O=[N+]([O-])c1ccc(N=C/C=C/Nc2ccc([N+](=O)[O-])cc2)cc1`, the EC50 was over 200 µM and the IC50 stood at 52.5 µM.
For `COC(=O)c1ccc(C)cc1CC1Cc2cccc(C)c2C1=O` (centres undefined) the same measures were over 200 µM and 5.37 µM.
In the same order, the values of `O=C(O)C(=O)O.[NH-]C1CCCC1[NH-].[Pt+2]` (centres undefined) are over 200 µM and 9.55 µM.
`C[Si](C)(C)C(CCCCSc1ccccc1)(Sc1ccccc1)Sc1ccccc1`: the result was inactive.
Regarding `COc1cc2c(cc1OC)CC1c3cc(OC)c(OC)cc3CCN1CC2` (centres undefined), the EC50 was over 200 µM and the IC50 was 30.2 µM.
For `COC(=O)C(=O)CC(=O)CCn1ncc(Cl)c(Cl)c1=O` the same measures were over 776 µM and 4.07 µM.
As for `COc1cc(/C=C/c2ccc(OC)c(OC)c2)cc(OC2OC(CO)C(O)C(O)C2O)c1` (centres undefined), the result was inactive.
Regarding `CN1CCC(O)(c2ccc(F)cc2)C(C(=O)c2ccc(F)cc2)C1` (centres undefined), the EC50 was over 200 µM and the IC50 came out at 72.4 µM.
For the molecule `COc1cccc(C2c3cc4c(cc3OC(NNC(N)=O)C2C)OCO4)c1OC` (centres undefined), the EC50 was over 200 µM and the IC50 amounted to 8.13 µM.
In the same order, the values of `COc1ccc(N=Nc2c(-c3ccccc3)nn(C(=O)CC(=O)Nc3ccc(OC)cc3)c2-c2ccccc2)cc1` are over 25.1 µM and over 25.1 µM.
In the same order, the values of `C(=C/c1nnnn1-c1ccccc1)/Nc1ccccc1` are over 200 µM and 26.3 µM.
For `Cc1nc2sc(CCl)nn2c(=O)c1Cl` the same measures were over 200 µM and 3.98 µM.
With `N=c1oc2cc(O)c(O)cc2cc1C(N)=O`, the EC50 is over 8.32 µM and the IC50 worked out at 7.41 µM.
For `CC(C)c1cc(=O)[nH]c2cc(N)ccc12` the same measures were over 200 µM and over 200 µM.
In the same order, the values of `CCN(CC)C(=O)Oc1c(Br)ccc2cc(C)cc(OC)c12` are over 200 µM and over 200 µM.
With `COC(=O)C1CCC(=O)NCCCCC(NC(=O)C(N)CC(=O)O)C(=O)N1` (stereo not drawn) (H-Asp-Lys-Glu-OMe; lactam 2-3; configuration not given here), the EC50 was over 200 µM and the IC50 came out at 91.2 µM.
For `OC(CN(Cc1nc2ccccc2[nH]1)Cc1nc2ccccc2[nH]1)CN(Cc1nc2ccccc2[nH]1)Cc1nc2ccccc2[nH]1` the same measures were over 200 µM and 2.51 µM.
In the same order, the values of `COC(=O)C(Cc1ccccc1)NC(=O)Cn1ccnc1[N+](=O)[O-]` (centres undefined) are over 759 µM and 132 µM.
As to `CN(C)NC(=S)Nc1ccccc1Br`, the EC50 is over 200 µM and the IC50 was over 200 µM.
Consider `Cn1ncc2c(=O)[nH]cnc21`, for which the EC50 is over 316 µM and the IC50 is over 316 µM.
For the molecule `N#Cc1cn(-c2c3ccccc3nc3ccccc23)c(=O)[nH]c1=O`, the EC50 was over 214 µM and the IC50 came to 0.288 µM.
Consider `CCOP(=O)(OCC)/C(C#N)=C/c1cc(O)ccc1O`, for which the EC50 is over 832 µM and the IC50 stood at 145 µM.
In the same order, the values of `O=C(O)c1ccc(/C=C/c2ccc(N=Nc3c(O)cc(O)cc3C(=O)O)cc2C(=O)O)cc1` are over 200 µM and 120 µM.
Regarding `Nc1ccccc1SC(CC(=O)c1ccccc1)c1ccc2c(c1)OCO2` (centres undefined), the EC50 was over 200 µM and the IC50 came out at 10.7 µM.
Take `COc1nc(NC2OC(CO)C(O)C(O)C2O)cc(=O)[nH]1` (centres undefined): the result was inactive.
As to `CCC1C(C)c2c([nH]c3ccccc23)C2C(=O)N(c3ccccc3)C(=O)C21` (centres undefined), the outcome was inactive.
For `COc1ccc(/C=C(\Cl)c2ccc(OC)c(OC)c2)cc1OC`, the EC50 is 56.2 µM and the IC50 is over 200 µM.
Take `COc1ccc(N(C(=O)NCCO)c2ccccc2)cc1`: the EC50 is over 200 µM and the IC50 is over 200 µM.
On to `COc1ccc(-c2oc(C=Nc3ccccc3)c([N+](=O)[O-])c2-c2ccc(OC)c(OC)c2)cc1OC`, for which the EC50 was over 45.7 µM and the IC50 was over 45.7 µM.
As for `CC(C)=CCC[C@@H](C)C1=C(O)C(Nc2ccccc2)=C(C)C(=O)C1=O`, the EC50 was over 200 µM and the IC50 came to 13.2 µM.
In the case of `O=C(/C=C/c1cccc(Br)c1)c1cccs1`, the result was inactive.
`N=C1SC23CCCN2C(=O)C2(CCCN2C3=O)S1`: the EC50 is over 891 µM and the IC50 was found to be 174 µM.
For `Cn1c(C2CC(C)(C)c3c2c2ccccc2n3C)cc2ccccc21` (centres undefined) the same measures were over 21.9 µM and over 21.9 µM.
In the same order, the values of `O=C1OC(c2ccccc2)=N/C1=C\c1ccccc1Cl` are over 35.5 µM and over 35.5 µM.
In the case of `CC/C=C1\N=C(c2ccc(Cl)cc2)OC1=O`, the EC50 is over 151 µM and the IC50 was 126 µM.
For `CON[N+]([O-])=NC(C)C` the same measures were 195 µM and over 200 µM.
For `CCOC(=O)c1cnc2[nH]ccn2c1=O` the same measures were over 200 µM and over 200 µM.
On to `N[C@H]1c2c(Cl)cccc2C(=O)[C@H]1O`, for which the EC50 is over 200 µM and the IC50 amounted to 11 µM.
In the same order, the values of `O=c1[nH]nc(-c2cccc(Br)c2)[nH]1` are over 200 µM and over 200 µM.
On to `O=C(O)/C(Cl)=C(\Cl)C(=O)Nc1ccc(Cl)cc1Cl`, for which the outcome was inactive.
Take `CCOC(=O)NC(Nc1ccc(S(=O)(=O)Nc2ncccn2)cc1)(C(=O)OCC)C(F)(F)F` (centres undefined): the EC50 is over 200 µM and the IC50 is over 200 µM.
